Patent publication US5279935A, “Method of immunossay including deactivation of endogenous alkaline phosphatase” (Becton, Dickinson and Company, priority 1990, dated 1994)
Read-outs that look alike come from different tables or passages of the source.

Columns and labels:
[1] = tested on: endogenous AP in uninfected MDCK cells; set-up: species or system canine
E. coli AP = E. coli AP (Escherichia coli, UniProt P00634); assay type: biochemical
[2] = 600 ng uninfected MDCK cells, acid wash 0.15M
[3] = 4.8 units/test of E. coli AP spike, no antigen, acid wash 0.15M
[4] = 4.8 units/test of E. coli AP spike

E. coli AP, sequence (P00634 22-471): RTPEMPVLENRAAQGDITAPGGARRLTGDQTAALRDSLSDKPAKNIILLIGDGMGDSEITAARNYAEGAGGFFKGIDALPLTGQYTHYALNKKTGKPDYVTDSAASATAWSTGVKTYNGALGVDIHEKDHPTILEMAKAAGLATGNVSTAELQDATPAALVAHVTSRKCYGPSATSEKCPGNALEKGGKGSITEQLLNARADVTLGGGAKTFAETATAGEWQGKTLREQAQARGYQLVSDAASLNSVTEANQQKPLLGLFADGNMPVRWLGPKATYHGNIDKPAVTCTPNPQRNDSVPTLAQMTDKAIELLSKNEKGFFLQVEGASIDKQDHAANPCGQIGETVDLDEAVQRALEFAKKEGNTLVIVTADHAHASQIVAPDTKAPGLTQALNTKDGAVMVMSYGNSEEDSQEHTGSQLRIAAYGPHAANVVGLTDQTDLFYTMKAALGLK

| Compound | Reflectance (arbitrary units) [1, 2] | reflectance (E. coli AP; [3]) | visual (E. coli AP; [3]) | reduction of signal due to the AP spike in comparison to the control (no acid) (E. coli AP; [4]) | Reflectance (arbitrary units) [1] | reflectance (E. coli AP) | visual (E. coli AP) |
| --- | --- | --- | --- | --- | --- | --- | --- |
| O=C(O)CC(O)C(=O)O (stereo not drawn) [E, malic acid] | .12 arbitrary units | .06 | (+) |  |  |  |  |
| O=C(O)C(O)C(O)C(=O)O (stereo not drawn) [C, tartaric acid] | .10 arbitrary units | .04 |  | most effective |  |  |  |
| O=C(O)CCC(=O)O [D, succinic acid] |  |  |  |  | .10 arbitrary units | .06 | (+) |
| O=C(O)CC(O)(CC(=O)O)C(=O)O [A, citric acid] | .12 arbitrary units | .03 |  | most effective |  |  |  |
| O=C(O)CCCC(=O)O [B, glutaric acid] | .10 arbitrary units | .06 | (+) |  |  |  |  |
| CC(O)C(=O)O (stereo not drawn) [F, lactic acid] | .12 arbitrary units | .06 | (+) |  |  |  |  |
